Laboratory results from patent US20110251135A1, “INHIBITORS OF PERITONEAL SEEDING OF CANCER CELLS” (University of Utah Research Foundation, priority 2008, published 2011).
“And” between values parts separate entries of the source, which are not always exact repeats. Equal entries are not always repeated.

Key:
[1] = system: transiently suspended HT-29 cells; test: Apoptosis of transiently suspended cells during readhesion (annexin V assay); type: cell-based, human
Description: HT-29 cells that were either transiently suspended with trypsin-EDTA or adherent for three days, were treated at time zero with DMSO or 10-100 μM BAY 11-7085. The percent of apoptotic cells was determined using the annexin V flow cytometry assay and graphed versus the dose of BAY 11-7085. FIG. 4B are photographs showing DLD-1, FIG. 4C are photographs showing HCT-116, and FIG. 4D are photographs showing HT-29 cells that were transiently suspended in trypsin-EDTA and allowed to readhere to glass coverslips for 1-24 hours. The cells were fixed and immunostained with an NF-κB p65 subunit monoclonal antibody.
The transiently suspended cells were lysed and allowed to bind to DNA oligonucleotides, containing the NF-κB consensus binding site, that were immobilized to 96-well plates. NF-κB protein bound to the oligonucleotides was detected by an antibody to the p65 subunit that only recognized p65 that is bound to DNA. The positive control was HeLa cells that were stimulated with TNFα. A control was performed using excess free NF-κB oligonucleotides (Competitor). […] NF-κB binding activity was determined by the TransAM assay as in FIG. 5A. […] The data shown represent typical results of three separate experiments. […] An immunoblot for COX-2 was performed.
The percentage of apoptotic cells was determined using the annexin V assay. The data points represent the averages of three experiments; bars, +−.SE. E. DLD-1 and F. HT-29 cells were transduced with an adenovirus containing the IκB super-repressor construct. After 3 days, the cells were transiently suspended and allowed to readhere in the presence of subapoptotic concentrations of BAY 11-7085 or DMSO (vehicle) for 8 hours. The data are expressed as fractions of cells surviving compared with the controls (no adenovirus) and were quantitatively determined by staining the remaining adherent cells with crystal violet.
Single cell suspensions were plated at 100,000 cells per well in 24-well plates in media containing DMSO, BAY 11-7082, BAY 11-7085, or MG-132 for 8-24 hours in an incubator. Alternatively, DMSO, BAY 11-7082, BAY 11-7085, or MG-132 were added to cells that were confluent and adherent for several days. The nonadherent cells were aspirated off with the media and spun for 3 minutes at 2,000 rpm in 15 mL polypropylene tubes. The adherent cells were washed twice with PBS, dispersed in trypsin, and spun down for 3 minutes at 2,000 rpm in 15 mL polypropylene tubes. The nonadherent and adherent cells were resuspended in 1× binding buffer (10 mM HEPES/NaOH, pH 7.4, 140 mM NaCl, and 2.5 mM CaCl2) to a final concentration of 10^6 cells/mL. 100 μL of the cell solution were transferred to a 5 mL culture tube and incubated with 5 μL of annexin V-FITC-conjugated monoclonal antibody (Pharmingen) and 10 μl, of propidium iodide (from a 50 μg/mL stock solution made in PBS) in the dark at 25° C. for 15 minutes. 400 μL of binding buffer was added to each tube and the cells were analyzed by flow cytometry immediately. The percent of apoptosis was determined as the percent of annexin V-positive, propidium iodide-negative cells of the total cells counted.
Various concentrations of BAY 11-7085 were added to HT-29 cells that were transiently suspended in trypsin-PBS for approximately 15 minutes before replating. The transiently suspended cells were quickly allowed to readhere in order to prevent anoikis. Alternatively, BAY 11-7085 was added to adherent HT-29 cell monolayers.

HT-29 cells = test: Intraabdominal seeding model, intraperitoneal injection of colon cancer cells into athymic mice (21 days); type: in vivo, mouse; settings: HT-29 IP in athymic mice, BAY 11-7085 (1 mg/kg) IP 24 hours earlier, then twice weekly, n = 6
Excerpt: FIG. 6 is a group of photographs showing an intraabdominal seeding model. FIGS. 6A, B, C show tumor implants of the liver of three athymic mice 21 days after receiving intraperitoneal injections of HT-29 cells. The mice were pretreated and treated for a total of 21 days with DMSO twice weekly. […] The mouse was pretreated and treated for a total of 21 days with DMSO twice weekly. FIG. 6E is a micrograph showing tumor invasion through the liver capsule. This section was obtained from the tumor implant from the mouse in FIG. 6A. […] FIG. 6G, (liver), FIG. 6H, (abdominal wall), and FIG. 6I, (intestinal) show tumor implants in three athymic mice 21 days after receiving intraabdominal injections of HCT-116 cells. All of the mice were treated with 5 mg/kg of BAY 11-7085 twice weekly.
HT-29 and HCT-116 cells were harvested in 0.25% trypsin-PBS-EDTA, washed once in media and PBS, and resuspended in PBS at 1 million cells per 200 μL. […] Subcutaneous tumor sizes were determined by measuring the length and width with calipers. […]
During colorectal cancer surgery, seeding of the peritoneal cavity by tumor cells with tumor cell implantation of the peritoneal surfaces can occur. Seeding results from the transient suspension of cancer cells, through a loss of adhesion either naturally ro because of surgical displacement, followed by readhesion to other tissues. […]

CC(C)(C)c1ccc(S(=O)(=O)/C=C/C#N)cc1 [BAY 11-7085, (2E)-3-[4-(tertiarybutylphenyl)sulfonyl]-2-propenenitrile]
BAY 11-7085-induced apoptosis during readhesion ([1]; HT-29 transiently suspended, treated and allowed to readhere, 8 hours): showed the same propensity for BAY 11-7085-induced apoptosis
apoptosis of transiently suspended HT-29 cells ([1]; all concentrations tested (10-100 μM), cells suspended in trypsin-PBS then replated): caused a significant increase in apoptosis
Liver Metastases (mice with metastases/n) (HT-29 cells): none of the 6 and 0/6
Peritoneal Metastases (mice with metastases/n) (HT-29 cells): 2 of 6 and 2/6
